From patent US9827189B2, “Stable parenteral DNJ compositions” (AMICUS THERAPEUTICS, INC., priority 2013, dated 2017)
“Also recorded” adds a separate entry of the source. Counter-ions that a name gives are not always drawn.

Key:
human whole blood = experiment: Hemolytic potential in human whole blood; format: cell-based; settings: 37 ° C. 30 minutes
Procedure: (§1) 1-DNJ-HCl was dissolved in sodium citrate buffer. 1-DNJ-HCl concentration was 30 mg/mL (resulting free 1-DNJ concentration was 25 mg/mL); sodium citrate buffer concentration was 50 mM at pH 5.0. 1-DNJ-HCl formulation was added to whole blood samples of male human, rat, and cynomolgus monkey. […]. Buffer served as a negative control, while Triton-X 100 (Lysing agent) served as a positive control. Additionally blood sample without any additions was used as a negative control. The samples were stored at 4° C. Blood samples were incubated at 37 ° C. for 30 minutes with the 1-DNJ-HCl formulation, after which the samples were centrifuged. The amount of hemoglobin in the supernatant from each centrifuged sample was measured using a commercially available hemoglobin assay kit (BioAssay Systems, QuantiChrom™ Hemoglobin Assay Kit) and the Tecan microplate reader.

[1] = Stability and integrity of 1-DNJ-HCl in buffer solutions at 60° C. by NP-HPLC (UV and CAD) and discoloration; format: physicochemical
Procedure: 1-DNJ-HCl was dissolved in sodium phosphate buffer. 1-DNJ-HCl concentration was 60 mg/mL; sodium phosphate buffer concentration was 100 mM at pH 4.89. The formulation was stored at 60° C. for 4 days. 1-DNJ-HCl solution in water was used as a control. Reaction rate for small molecules such as 1-DNJ-HCl generally follows Arrhenius equation where reaction rate nearly doubles for every 10° C. increase in the temperature. Thus, under this model, the reaction rate at 60° C. would be 2^5 or 32 times the reaction rate at 10° C. Therefore during 4 days at 60° C. 1-DNJ-HCl would degrade by approximately the same percentage as during 128 days (4*32) at 10° C. The stability of 1-DNJ-HCl was measured by normal phase high performance liquid chromatography (NP-HPLC). 1-DNJ-HCl was recorded by UV chromatograms and by Charged Aerosol Detector (CAD) chromatograms. Mobile phase consisted of ACN/30 mM Ammonium Acetate (90/10, v/v). The flow rate was 1.0 ml/min with 5 μl injection at 400° C. UV absorbance was measured at 220 nm CAD detector settings were 35.0 psi, Gain: 100 pA. 1-DNJ-HCl was dissolved in sodium acetate buffer. The 1-DNJ-HCl concentration was 60 mg/mL; sodium acetate buffer concentration was 50 mM at pH 5.5. The formulation was stored at 60° C. for 4 days. 1-DNJ-HCl solution in water was used as control. Reaction rate for small molecules such as 1-DNJ-HCl generally follows the Arrhenius equation, in which the reaction rate nearly doubles for every 10°K increase in the temperature. Thus the reaction rate, under this model, at 60° C. would be 2^5 or 32 times the reaction rate at 10° C. Therefore during 4 days at 60° C. 1-DNJ-HCl would degrade by approximately same percentage as during 128 days at 10° C. The stability of 1-DNJ-HCl was measured by NP-HPLC. Presence of 1-DNJ-HCl was recorded by UV absorbance detector and by Charged Aerosol Detector. Mobile phase consisted of ACN/30 mM Ammonium Acetate (90/10, v/v). The flow rate was 1.0 ml/min with 5 μl injection at 400 C. UV absorbance was measured at 220 nm. CAD detector settings were 35.0 psi, Gain: 100 pA. 1-DNJ-HCl was dissolved in sodium citrate buffer that further includes EDTA. 1-DNJ-HCl concentration was 60 mg/mL; sodium citrate buffer concentration was 50 mM at pH 4.6. The EDTA concentration was 0.05% w/v. Some samples were stored under the nitrogen atmosphere (essentially 100% nitrogen) while others were stored under air. The formulation was stored at 60° C. for 8 days. Stability of 1-DNJ-HCl was measured by NP-HPLC. Presence of 1-DNJ-HCl was recorded by UV absorbance detector and by Charged Aerosol Detector. Mobile phase consisted of ACN/30 mM Ammonium Acetate (90/10, v/v). The flow rate was 1.0 ml/min with 5 μl injection at 400 C. UV absorbance was measured at 220 nm. CAD detector settings were 35.0 psi, Gain: 100 pA. 1-DNJ-HCl was dissolved in sodium citrate buffer. 1-DNJ-HCl concentration was 60 mg/mL; sodium citrate buffer concentration was 50 mM at pH 4.7. The formulation was stored at 60° C. for 8 days. 1-DNJ-HCl solution in water was used as control. Stability of 1-DNJ-HCl was measured by NP-HPLC. Presence of 1-DNJ-HCl was recorded by UV absorbance detector and by Charged Aerosol Detector. Mobile phase consisted of ACN/30 mM Ammonium Acetate (90/10, v/v). The flow rate was 1.0 ml/min with 5 μl injection at 400 C. UV absorbance was measured at 220 nm. CAD detector settings were 35.0 psi, Gain: 100 pA. 1-DNJ-HCl was dissolved in sodium citrate buffer. 1-DNJ-HCl concentration was 60 mg/mL; sodium citrate buffer concentration was 50 mM at pH 5.0. The formulation was stored at 60° C. for 17 days. The samples were stored under the nitrogen atmosphere (essentially 100% nitrogen). 1-DNJ-HCl solution in water was used as control. Reaction rate for small molecules such as 1-DNJ-HCl generally follows Arrhenius equation where reaction rate nearly doubles for every 10°K increase in the temperature. Thus reaction rate at 60° C. would be 2^5 or 32 times the reaction rate at 10° C. Therefore during 17 days at 60° C. […]

rat whole blood = experiment: Hemolytic potential in rat whole blood; format: cell-based, Sprague Dawley rat; settings: 37 ° C. 30 minutes
Procedure: as §1

[2] = 500 μL blood mixed with 500 μL sample (30 mg/mL AT2220 or 0.1% Triton X-100)
[3] = 500 μL blood mixed with 500 μL sample, 30 mg/mL AT2220 dilution 1, 0.1% Triton X-100 dilution 100
[4] = 60 mg/mL in 50 mM sodium acetate buffer pH 5.5, 60° C., 4 days, hydrochloride
[5] = 60 mg/mL in 50 mM sodium citrate buffer pH 4.6, EDTA 0.05% w/v, nitrogen atmosphere, 60° C., 8 days
[6] = 60 mg/mL in 50 mM sodium citrate buffer pH 4.6, EDTA 0.05% w/v, stored under air, 60° C., 8 days
[7] = 60 mg/mL in 100 mM sodium phosphate buffer pH 4.89, 60° C., 4 days
[8] = 60 mg/mL in 100 mM sodium phosphate buffer pH 4.89, 60° C., 4 days, hydrochloride
[9] = control 1-DNJ-HCl aqueous solution, 60° C., 4 days
[10] = control 1-DNJ-HCl aqueous solution, 60° C., 8 days
[11] = control 1-DNJ-HCl aqueous solution, 60° C., 17 days
[12] = sodium citrate buffer, summary of the Examples

Presence of 1-DNJ-HCl (NP-HPLC) ([1]; 60 mg/mL in 50 mM sodium acetate buffer pH 5.5, 60° C., 4 days): still present
Presence of 1-DNJ-HCl (NP-HPLC) ([1]; 60 mg/mL in 50 mM sodium citrate buffer pH 4.6, EDTA 0.05% w/v, 60° C., 8 days): still present
New compounds (UV and CAD chromatograms) [1, 5]: No new compounds were detected
Discoloration [1, 6]: slight discoloration
New compounds (UV and CAD chromatograms) [1, 6]: showed presence of new compounds
Presence of 1-DNJ-HCl (NP-HPLC) ([1]; 60 mg/mL in 50 mM sodium citrate buffer pH 4.7, 60° C., 8 days): still present
Presence of 1-DNJ-HCl (NP-HPLC) ([1]; 60 mg/mL in 50 mM sodium citrate buffer pH 5.0, nitrogen atmosphere, 60° C., 17 days): still present
Presence of 1-DNJ-HCl (NP-HPLC) [1, 7]: still present
Stability [1, 7]: not stable
Appearance of solution [1, 9]: remainded clear
New compounds (UV and CAD chromatograms) [1, 9]: No new compounds were detected
Discoloration [1, 10]: No discoloration was observed
New compounds (UV and CAD chromatograms) [1, 10]: No new compounds were detected
Discoloration [1, 11]: No discoloration was observed
New compounds (UV and CAD chromatograms) [1, 11]: No new compounds were detected
Relative stability among buffers ([1]; sodium citrate buffer compared with sodium phosphate and sodium acetate buffers): most stable
Discoloration [1, 12]: little to no discoloration
Compound: OC[C@H]1NC[C@H](O)[C@@H](O)[C@@H]1O [1-DNJ-HCl, 1-deoxynojirimycin hydrochloride]
% RBC lysis (human whole blood; [2]): 0.0%
Avg OD (n = 4) (human whole blood; [3]): 0.0755
Discoloration [1, 4]: discoloration of the acetate buffer solution was observed; also recorded: resulted in discoloration
New compounds (UV and CAD chromatograms) [1, 4]: detected presence of new compounds; also recorded: presence of additional compounds
Discoloration [1, 5]: remained clear with no visible discoloration
Discoloration [1, 8]: discoloration of the phosphate buffer solution was observed; also recorded: resulted in discoloration
New compounds (UV and CAD chromatograms) [1, 8]: detected presence of new compounds; also recorded: presence of additional compounds
Additional compounds (HPLC) [1, 12]: little to no presence of additional compounds
% RBC lysis (rat whole blood; [2]): −0.3%
Avg OD (n = 4) (rat whole blood; [3]): 0.3535
